Laboratory results: article PMC13070491, “Single-nucleus transcriptomics, pharmacokinetics, and pharmacodynamics of CDK4/6 and mTOR inhibition in a Phase 0/1 trial of recurrent high-grade glioma” (Neuro-Oncology, 2025)
Several values for one entry are separate records, joined by “and”; a condition that tells them apart may be missing. Equal entries are not always repeated.

Assay: CNS penetration: total and unbound drug concentrations in tumor regions, CSF and plasma (LC-MS/MS, equilibrium dialysis);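 note: drug levels in patient tumor tissue from contrast-enhancing and non-enhancing regions sampled under MRI-guided neuronavigation, with plasma and CSF drawn during surgical resection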
Conditions: for Ribociclib.CSF / Ribociclib.Non-enhancing.tumor / Ribociclib.Plasma.conc / Ribociclib.Unbound.CSF / Ribociclib.Unbound.enhancing: per patient; for Kp at 120 h / Kp uu at 120 h / concentration at 5 days: human
[1] = Level 0: Ribociclib 400mg QD + Everolimus 2.5mg QD, sampling 1-3 Hours
[2] = Level 0: Ribociclib 400mg QD + Everolimus 2.5mg QD, sampling 23-25 Hours
[3] = Level 1: Ribociclib 600mg QD + Everolimus 2.5mg QD, sampling 1-3 Hours
[4] = Level 1: Ribociclib 600mg QD + Everolimus 2.5mg QD, sampling 7-9 Hours
[5] = Level 2: Ribociclib 600mg QD + Everolimus 5mg QD, sampling 7-9 Hours
[6] = Level 3: Ribociclib 600mg QD + Everolimus 10mg QD, sampling 7-9 Hours
[7] = Level 4: Ribociclib 600mg QD + Everolimus 50mg once on Day 5, sampling 7-9 Hours
[8] = Level 5: Ribociclib 600mg QD + Everolimus 60mg once on Day 5, sampling 7-9 Hours
[9] = Level 6: Ribociclib 600mg QD + Everolimus 70mg once on Day 5, sampling 7-9 Hours
[10] = enhancing tumor / plasma, oral, 400 mg
[11] = enhancing tumor / plasma, oral, 600 mg
[12] = non-enhancing tumor / plasma, oral, 400 mg
[13] = non-enhancing tumor / plasma, oral, 600 mg

Total Ribociclib concentration, CSF, Minimum (400 mg QD 5 days): 36 nM
Total Ribociclib concentration, CSF, Maximum (600 mg QD 5 days): 714 nM
Total Ribociclib concentration, CSF, Median (600 mg QD 5 days): 276 nM
Total Ribociclib concentration, CSF, Minimum (600 mg QD 5 days): 54 nM
Ribociclib.CSF [1]: 0.0707
Ribociclib.Non-enhancing.tumor [1]: 6.684
Ribociclib.Plasma.conc [1]: 2.09 and 0.31
Ribociclib.Unbound.CSF [1]: 0.2008 and 0.0206
Ribociclib.Unbound.enhancing [1]: 1.4 and 0.419
Ribociclib.CSF [2]: 0.1931
Ribociclib.Non-enhancing.tumor [2]: 3.834
Ribociclib.Plasma.conc [2]: 0.402 and 0.1417
Ribociclib.Unbound.CSF [2]: 0.0928
Ribociclib.Unbound.enhancing [2]: 0.92 and 0.1576
Ribociclib.CSF [3]: 0.0543
Ribociclib.Non-enhancing.tumor [3]: 7.2608
Ribociclib.Plasma.conc [3]: 0.1944
Ribociclib.Unbound.CSF [3]: 0.0207
Ribociclib.Unbound.enhancing [3]: 0.4205
Ribociclib.CSF [4]: 0.4701 and 0.7139
Ribociclib.Non-enhancing.tumor [4]: 30.0728 and 22.3048
Ribociclib.Plasma.conc [4]: 3.4168 and 1.3485
Ribociclib.Unbound.CSF [4]: 0.2858 and 0.3152
Ribociclib.Unbound.enhancing [4]: 4.5 and 3.49
Ribociclib.CSF [5]: 0.1529 and 0.1758
Ribociclib.Non-enhancing.tumor [5]: 8.1928 and 11.9076 and 16.496
Ribociclib.Plasma.conc [5]: 1.151 and 0.8853 and 1.3745
Ribociclib.Unbound.CSF [5]: 0.1531 and 0.1613
Ribociclib.Unbound.enhancing [5]: 1.0167 and 1.1852 and 2.1093
Ribociclib.CSF [6]: 0.2760 and 0.5558 and 0.3667
Ribociclib.Non-enhancing.tumor [6]: 19.9804 and 11.7316 and 41.6376
Ribociclib.Plasma.conc [6]: 1.0816 and 1.6009
Ribociclib.Unbound.CSF [6]: 0.3027
Ribociclib.Unbound.enhancing [6]: 1.1229 and 3.39 and 0.0047
Ribociclib.CSF [7]: 0.1707 and 0.4561
Ribociclib.Non-enhancing.tumor [7]: 4.2684 and 4.8112
Ribociclib.Plasma.conc [7]: 0.7506 and 1.3586 and 0.9058
Ribociclib.Unbound.CSF [7]: 0.1543 and 0.2120 and 0.3373
Ribociclib.Unbound.enhancing [7]: 0.6494 and 0.9352 and 3.453
Ribociclib.CSF [8]: 0.0807 and 0.3122 and 0.4398
Ribociclib.Non-enhancing.tumor [8]: 12.238 and 4.126
Ribociclib.Plasma.conc [8]: 1.163 and 1.8703 and 1.3349
Ribociclib.Unbound.CSF [8]: 0.0799 and 0.2965
Ribociclib.Unbound.enhancing [8]: 1.348 and 0.6511 and 0.2648
Ribociclib.CSF [9]: 0.5436 and 0.0672 and 0.1419
Ribociclib.Non-enhancing.tumor [9]: 17.8508 and 1.3144 and 1.5982
Ribociclib.Plasma.conc [9]: 1.4899 and 0.302 and 1.3235
Ribociclib.Unbound.CSF [9]: 0.1898 and 0.0709 and 0.0882
Ribociclib.Unbound.enhancing [9]: 1.0559 and 0.5673 and 0.5436
Kp at 120 h (CSF / plasma, oral, 400 mg): 0.25
Kp uu at 120 h (CSF / plasma, oral, 400 mg): 1.15
Kp at 120 h (CSF / plasma, oral, 600 mg): 0.22
Kp uu at 120 h (CSF / plasma, oral, 600 mg): 0.84
concentration at 5 days (CSF, oral, Total Ribociclib concentration, Maximum, 400 mg QD 5 days): 216 nM
concentration at 5 days (CSF, oral, Total Ribociclib concentration, Median, 400 mg QD 5 days): 137 nM
concentration at 5 days (CSF, oral, Unbound Ribociclib concentration, Maximum, 400 mg QD 5 days): 201 nM
concentration at 5 days (CSF, oral, Unbound Ribociclib concentration, Maximum, 600 mg QD 5 days): 337 nM
concentration at 5 days (CSF, oral, Unbound Ribociclib concentration, Median, 400 mg QD 5 days): 82 nM
concentration at 5 days (CSF, oral, Unbound Ribociclib concentration, Median, 600 mg QD 5 days): 212 nM
concentration at 5 days (CSF, oral, Unbound Ribociclib concentration, Minimum, 400 mg QD 5 days): 21 nM
concentration at 5 days (CSF, oral, Unbound Ribociclib concentration, Minimum, 600 mg QD 5 days): 21 nM
Kp at 120 h [10]: 12.9
Kp uu at 120 h [10]: 5.1
Kp at 120 h [11]: 14.1
Kp uu at 120 h [11]: 5.67
concentration at 5 days (enhancing tumor, oral, Total Ribociclib concentration, Maximum, 400 mg QD 5 days): 9900 nM
concentration at 5 days (enhancing tumor, oral, Total Ribociclib concentration, Maximum, 600 mg QD 5 days): 49400 nM
concentration at 5 days (enhancing tumor, oral, Total Ribociclib concentration, Median, 400 mg QD 5 days): 4060 nM
concentration at 5 days (enhancing tumor, oral, Total Ribociclib concentration, Median, 600 mg QD 5 days): 14800 nM
concentration at 5 days (enhancing tumor, oral, Total Ribociclib concentration, Minimum, 400 mg QD 5 days): 2330 nM
concentration at 5 days (enhancing tumor, oral, Total Ribociclib concentration, Minimum, 600 mg QD 5 days): 753 nM
concentration at 5 days (enhancing tumor, oral, Unbound Ribociclib concentration, Maximum, 400 mg QD 5 days): 1400 nM
concentration at 5 days (enhancing tumor, oral, Unbound Ribociclib concentration, Maximum, 600 mg QD 5 days): 4500 nM
concentration at 5 days (enhancing tumor, oral, Unbound Ribociclib concentration, Median, 400 mg QD 5 days): 375 nM
concentration at 5 days (enhancing tumor, oral, Unbound Ribociclib concentration, Median, 600 mg QD 5 days): 1040 nM
concentration at 5 days (enhancing tumor, oral, Unbound Ribociclib concentration, Minimum, 400 mg QD 5 days): 158 nM
concentration at 5 days (enhancing tumor, oral, Unbound Ribociclib concentration, Minimum, 600 mg QD 5 days): 4.7 nM
Kp at 120 h [12]: 8.35
Kp uu at 120 h [12]: 3.19
Kp at 120 h [13]: 8.8
Kp uu at 120 h [13]: 3.78
concentration at 5 days (non-enhancing tumor, oral, Total Ribociclib concentration, Maximum, 400 mg QD 5 days): 15000 nM
concentration at 5 days (non-enhancing tumor, oral, Total Ribociclib concentration, Maximum, 600 mg QD 5 days): 41600 nM
concentration at 5 days (non-enhancing tumor, oral, Total Ribociclib concentration, Median, 400 mg QD 5 days): 3130 nM
concentration at 5 days (non-enhancing tumor, oral, Total Ribociclib concentration, Median, 600 mg QD 5 days): 11700 nM
concentration at 5 days (non-enhancing tumor, oral, Total Ribociclib concentration, Minimum, 400 mg QD 5 days): 1370 nM
concentration at 5 days (non-enhancing tumor, oral, Total Ribociclib concentration, Minimum, 600 mg QD 5 days): 1310 nM
concentration at 5 days (non-enhancing tumor, oral, Unbound Ribociclib concentration, Maximum, 400 mg QD 5 days): 1770 nM
concentration at 5 days (non-enhancing tumor, oral, Unbound Ribociclib concentration, Maximum, 600 mg QD 5 days): 2340 nM
concentration at 5 days (non-enhancing tumor, oral, Unbound Ribociclib concentration, Median, 400 mg QD 5 days): 170 nM
concentration at 5 days (non-enhancing tumor, oral, Unbound Ribociclib concentration, Median, 600 mg QD 5 days): 693 nM
concentration at 5 days (non-enhancing tumor, oral, Unbound Ribociclib concentration, Minimum, 400 mg QD 5 days): 65 nM
concentration at 5 days (non-enhancing tumor, oral, Unbound Ribociclib concentration, Minimum, 600 mg QD 5 days): 68 nM
concentration at 5 days (non-enhancing tumor, po, unbound drug concentration in the non-enhancing tumor regions, range, ribociclib 400 mg daily oral, 5 days): 65 to 1770 nM
concentration at 5 days (non-enhancing tumor, po, unbound drug concentration in the non-enhancing tumor regions, range, ribociclib 600 mg daily oral, 5 days): 68 to 2340 nM
SMILES: CN(C)C(=O)c1cc2cnc(Nc3ccc(N4CCNCC4)cn3)nc2n1C1CCCC1 [Ribociclib, ribociclib]
